From paper PMC5665883, “Antithrombotic properties of JJ1, a potent and novel thrombin inhibitor” (Scientific Reports, 2017)

What was measured:
[1] = FeCl3-induced arterial thrombosis model; format: in vivo, C57BL/6 mice; settings: mice, i.v.
Procedure: The FeCl3-induced thrombosis mouse model was established as previously described. Male C57BL/6 mice were fasted overnight and were administered JJ1 in DMSO by intravenous injection. Then, mice were anesthetized using 3% isoflurane (Forane®, Choongwae Pharma. Corp., Seoul, Korea) and injected intravenously with 0.1 mL 0.1% rhodamine 6 G (Sigma). A testicular artery (200 μm in diameter) was carefully exposed and a cotton thread (200 μm in diameter) saturated with 0.25 mol/L FeCl3 was applied to the adventitial surface. After 5 min, the cotton thread was removed, and the wound was flushed with saline solution. Thrombus formation was monitored at 35 °C by 3-dimensional imaging as previously described. The size and time of thrombus formation were monitored, and the findings were scored as follows: no thrombus, 0; small thrombus (50 μm × 75 μm), 1; medium-sized thrombus (100 μm × 150 μm), 2; large thrombus (200 μm × 300 μm), 3. The time from FeCl3-mediated endothelial injury to occlusion of the testicular artery by a large thrombus was measured.

[2] = Ex vivo aPTT clotting time; format: in vivo, C57BL/6 mice; settings: mice, i.v., 1 h after administration
Procedure: (§1) The aPTT and PT were determined using a Thrombotimer (Behnk Elektronik, Norderstedt, Germany) in accordance with the manufacturer’s instructions and as previously described. Briefly, citrated normal human plasma (90 μL) was mixed with 10 μL JJ1 and incubated for 1 min at 37 °C. Subsequently, the aPTT assay reagent (100 μL) was added, the plasma sample was incubated for an additional 1 min at 37 °C, 20 mM CaCl2 (100 μL) was added, and the clotting times were recorded. For the PT assays, citrated normal human plasma (90 μL) was mixed with 10 μL JJ1 stock solution and was incubated for 1 min at 37 °C. The PT assay reagent (200 μL), which had been pre-incubated for 10 min at 37 °C, was subsequently added and the clotting time was recorded. The PT results were expressed in seconds and as International Normalized Ratios (INR): INR = (PT sample/PT control)^ISI, where ISI = international sensitivity index. The aPTT results were also expressed in seconds. All experimental protocols (KNUH 2012-01-010) were approved by the Institutional Review Board of Kyungpook National University Hospitals (Daegu, Republic of Korea).
Male C57BL/6 mice were fasted overnight. Each compound was dissolved in 0.5% DMSO and administered by i.v. injection. One hour after administration, arterial blood samples (0.1 mL) were collected in 3.8% sodium citrate (1:10, v/v) for the ex vivo aPTT and PT determination. The clotting times were determined as described above.

human plasma = experiment: In vitro aPTT clotting time; format: biochemical; settings: for aPTT: in vitro
Procedure: as §1

Urokinase = Urokinase (Homo sapiens, UniProt P00749); experiment: Chromogenic substrate assay, Ki (Dixon); format: biochemical
Procedure: (§2) Chromogenic substrate assays were performed using a Labsystems IEMS (Cergy Pontoise, France) microtiter plate reader. K i values were calculated according to the method of Dixon[65]. In each assay, the compound was tested at a minimum of seven concentrations, in duplicate, to obtain an inhibition curve. The following general procedures were adopted for each assay. In a 96-well microtiter plate, 25 μL of inhibitor solution or buffer was added to 50 μL of substrate. The enzyme solution (25 μL) was added just before the plate was placed in the microtiter plate reader for 1 h at 37 °C. The hydrolysis of the substrate yields p-nitroaniline, which was continuously monitored spectrophotometrically at 405 nm. The maximal initial reaction rates were calculated and expressed as millioptical density per minute.

[3] = Organ injury markers (biochemical safety parameters); format: in vivo, C57BL/6 mice; design: BUN: unit not given here
Procedure: The safety of JJ1 is another promising feature. Animal safety markers such as aspartate transaminase (AST) and alanine transaminase (ALT) (markers of hepatic injury) and creatinine and blood urea nitrogen (BUN) (markers of renal injury) were assessed with blood samples obtained at 48 h after JJ1 injection. […] Serum levels of AST, ALT, BUN, and creatinine were measured using commercial assay kits (Pointe Scientific, Linclon Park, MI).

Protein Ca = target: T1, Protein Ca (Homo sapiens, UniProt P04070); experiment: Chromogenic substrate assay, Ki (Dixon); format: biochemical
T1 construct: thrombin versus trypsin, factor Xa, elastase, plasmin, protein Ca, streptokinase, tPA, and urokinase
Procedure: as §2

human α-thrombin = target: T2, human α-thrombin (Homo sapiens, UniProt P00734); experiment: Chromogenic substrate assay, Ki (Dixon); format: biochemical
T2 construct: purchased Haematologic Technologies (Essex Junction, VT)
Procedure: as §2

[4] = Pharmacokinetics after i.v. injection; format: in vivo; settings: mouse, plasma, iv, male C57BL/6 mice, 2 mg/kg, fasting
Procedure: The penile veins of male C57BL/6 mice were injected with 2 mg/kg JJ1. Approximately 50 μL of blood was obtained from the tail vein immediately before and at 5, 15, 30, 60, and 180 min after injection; 80 μL acetonitrile and internal standard solution (reserpine) were then added to these samples, and plasma samples (10 μL) were prepared by centrifugation of the blood at 13,000 rpm for 15 min at 4 °C. An aliquot (2 μL) of the supernatant was then injected into an HPLC column. The pharmacokinetic parameters were determined using the standard non-compartmental method. The area under the curve for serum was calculated using the log linear trapezoidal method on WinNonlin (version 2.0; Scientific Consulting, KY, USA). The samples were analyzed using an Accela^TM LC system coupled to a TSQ Vantage triple quadrupole mass spectrometer (Thermo Fisher Scientific Inc., USA) equipped with a HESI-II Spray source. For the LC analysis, an ACE® 5C18, 3 μm (2.1 × 50 mm) column was used. The mobile phases were (A) LC-grade® water containing 0.1% formic acid, and (B) LC grade acetonitrile containing 0.1% formic acid (B). This initial composition was increased to 95% solvent (B) for 3 minutes. The gradient program for HPLC used a flow rate of […]. […]

thrombin = target: T3, thrombin (Homo sapiens, UniProt P00734); experiment: Thrombin activity assay (amidolytic activity, S-2238); format: biochemical; settings: α-Thrombin, chromogenic substrate; read-out: IC50, inhibition of amidolytic activity of thrombin (converted)
T3 construct: thrombin solution (150 μL, 10 U/mL) was added; purchased Haematologic Technologies (Essex Junction, VT)
Procedure: Following a 2-min incubation at 37 °C, thrombin solution (150 μL, 10 U/mL) was added, followed by incubation at 37 °C for 1 min. A solution of the thrombin substrate, S-2238, (150 μL, 1.5 mM) solution was subsequently added and the absorbance at 405 nm was monitored for 120 s using a spectrophotometer (TECAN, Männedorf, Switzerland).

[5] = male C57BL/6 mice, 3.06 μg/mouse, 48 h after injection

T1 sequence (P04070 212-450 limits assumed): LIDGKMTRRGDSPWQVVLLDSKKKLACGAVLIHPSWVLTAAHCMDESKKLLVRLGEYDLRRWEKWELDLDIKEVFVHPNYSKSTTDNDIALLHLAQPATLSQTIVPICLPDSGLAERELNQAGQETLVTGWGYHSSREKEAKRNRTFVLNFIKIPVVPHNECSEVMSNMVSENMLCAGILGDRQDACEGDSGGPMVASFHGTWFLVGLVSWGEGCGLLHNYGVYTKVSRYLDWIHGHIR
T1 sequence (P04070 43-197 limits assumed): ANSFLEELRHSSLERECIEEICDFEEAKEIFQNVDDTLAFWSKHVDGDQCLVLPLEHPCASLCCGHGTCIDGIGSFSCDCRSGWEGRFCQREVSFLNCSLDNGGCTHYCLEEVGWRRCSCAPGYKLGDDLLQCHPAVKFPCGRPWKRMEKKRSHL

**Q.** Which results are given for `c1ccc2c(NC3CCCC3)nc(Nc3ccncc3)nc2c1` [JJ1]?
**A.** Growth of thrombi (time to large thrombus formation) ([1]; FeCl3-induced thrombosis): significantly slowed the growth of thrombi; Thrombus size at 60 min after FeCl3-induced endothelial injury [1]: reduced FeCl3-induced thrombus formation; aPTT ([2]; 0.31 μg/mouse): 31.9 ± 0.6 s; aPTT ([2]; 0.61 μg/mouse): 40.1 ± 1.1 s; aPTT ([2]; 1.23 μg/mouse): 49.4 ± 1.5 s; aPTT ([2]; 3.06 μg/mouse): 55.8 ± 1.2 s; Concentration that doubled the clotting time, aPTT assay (human plasma): 1.66 µM; aPTT (human plasma; 0.05 μM): 23.5 ± 0.4 s; aPTT (human plasma; 0.1 μM): 23.3 ± 0.2 s; aPTT (human plasma; 0.2 μM): 24.2 ± 0.4 s; aPTT (human plasma; 0.5 μM): 32.4 ± 0.6 s; aPTT (human plasma; 1.0 μM): 41.3 ± 0.4 s; aPTT (human plasma; 2.0 μM): 50.4 ± 0.6 s; aPTT (human plasma; 5.0 μM): 51.6 ± 0.4 s; Selectivity ratio (Urokinase; K i Urokinase/K i α-thrombin): >10,000; Ki (Urokinase; Urokinase): > 250000 nM; Plasma levels of AST, ALT, BUN, and creatinine compared to DMSO-treated animals ([3]; after 2 days): no significant differences; ALT [3, 5]: 7.5 ± 0.63 IU/L; AST [3, 5]: 15.1 ± 1.29 IU/L; BUN [3, 5]: 17.1 ± 1.31; Creatinine [3, 5]: 0.139 ± 0.012 mg/dL; Selectivity ratio (Protein Ca; K i Protein Ca/K i α-thrombin): >10,000; Ki (Protein Ca; Protein Ca): > 250000 nM; Selectivity ratio (human α-thrombin; K i enzyme/K i α-thrombin): 1; Ki (human α-thrombin; mean ± SD (n = 5)): 19 ± 0.5 nM; AUC [4]: 6100 ng·h/mL; half-life [4]: 3.1 h; IC50 (thrombin): 150 nM
